Measured values published in ChEMBL document CHEMBL1144896 (2003).

Experiments:
[1] = tested on: BJ; test: pPCMV-SEAP (cytomegalovirus-SEAP) activity in immortalized hTERT-BJ1 at 280 uM concentration and level of cell viability determined in MTT assay; assay type: functional, Homo sapiens
[2] = tested on: BJ; test: Compound was tested for cytomegalovirus or (pPCMV-SEAP) activity in immortalized hTERT-BJ1 at 2.8 uM concentration; assay type: functional, Homo sapiens
[3] = tested on: NCI-H1299; test: Compound was tested for human telomerase reverse transcriptase-SEAP (hTERT-SEAP) activity in non-small cell lung cancer H1299 cell at 280.0 uM concentration; assay type: functional
[4] = tested on: BJ; test: Compound was tested for cytomegalovirus or (pPCMV-SEAP) activity in immortalized hTERT-BJ1 at 28 uM concentration; assay type: functional, Homo sapiens
[5] = tested on: BJ; test: Compound was tested for human telomerase reverse transcriptase-SEAP (hTERT-SEAP) activity in immortalized hTERT-BJI at 28.0 uM concentration; assay type: functional
[6] = tested on: NCI-H1299; test: hTERT-SEAP (Human telomerase reverse transcriptase-SEAP) activity in non-small cell lung cancer H1299 cell at 28 uM concentration and level of cell viability determined in MTT assay; assay type: functional
[7] = tested on: BJ; test: Compound was tested for human telomerase reverse transcriptase-SEAP (hTERT-SEAP) activity in immortalized hTERT-BJI at 280.0 uM concentration; assay type: functional
[8] = tested on: NCI-H1299; test: hTERT-SEAP (Human telomerase reverse transcriptase-SEAP) activity in non-small cell lung cancer H1299 cell at 280.0 uM concentration and level of cell viability determined in MTT assay; assay type: functional
[9] = tested on: BJ; test: hTERT-SEAP (Human telomerase reverse transcriptase-SEAP) activity in immortalized hTERT-BJI at 280.0 uM concentration and level of cell viability determined in MTT assay; assay type: functional
[10] = tested on: BJ; test: hTERT-SEAP (Human telomerase reverse transcriptase-SEAP) activity in immortalized hTERT-BJI at 28.0 uM concentration and level of cell viability determined in MTT assay; assay type: functional
[11] = tested on: BJ; test: hTERT-SEAP (Human telomerase reverse transcriptase-SEAP) activity in immortalized hTERT-BJI at 2.8 uM concentration and level of cell viability determined in MTT assay; assay type: functional
[12] = tested on: NCI-H1299; test: hTERT-SEAP (Human telomerase reverse transcriptase-SEAP) activity in non-small cell lung cancer H1299 cell at 2.8 uM concentration and level of cell viability determined in MTT assay; assay type: functional
[13] = tested on: NCI-H1299; test: Compound was tested for human telomerase reverse transcriptase-SEAP (hTERT-SEAP) activity in non-small cell lung cancer H1299 cell at 2.8 uM concentration; assay type: functional
[14] = tested on: NCI-H1299; test: Compound was tested for human telomerase reverse transcriptase-SEAP (hTERT-SEAP) activity in non-small cell lung cancer H1299 cell at 28.0 uM concentration; assay type: functional
[15] = tested on: BJ; test: Compound was tested for cytomegalovirus or (pPCMV-SEAP) activity in immortalized hTERT-BJ1 at 280 uM concentration; assay type: functional, Homo sapiens
[16] = tested on: BJ; test: pPCMV-SEAP (cytomegalovirus-SEAP) activity in immortalized hTERT-BJ1 at 28 uM concentration and level of cell viability determined in MTT assay; assay type: functional, Homo sapiens
[17] = tested on: BJ; test: pPCMV-SEAP (cytomegalovirus-SEAP) activity in immortalized hTERT-BJ1 at 2.8 uM concentration and level of cell viability determined in MTT assay; assay type: functional, Homo sapiens
[18] = tested on: BJ; test: Compound was tested for human telomerase reverse transcriptase-SEAP (hTERT-SEAP) activity in immortalized hTERT-BJI at 2.8 uM concentration; assay type: functional
[19] = tested on: BJ; test: Compound was tested for human telomerase reverse transcriptase-SEAP (hTERT-SEAP) activity in immortalized hTERT-BJI at 260.0 uM concentration; assay type: functional
[20] = tested on: BJ; test: Compound was tested for human telomerase reverse transcriptase-SEAP (hTERT-SEAP) activity in immortalized hTERT-BJI at 26 uM concentration; assay type: functional
[21] = tested on: NCI-H1299; test: hTERT-SEAP (Human telomerase reverse transcriptase-SEAP) activity in non-small cell lung cancer H1299 cell at 260.0 uM concentration and level of cell viability determined in MTT assay; assay type: functional
[22] = tested on: NCI-H1299; test: hTERT-SEAP (Human telomerase reverse transcriptase-SEAP) activity in non-small cell lung cancer H1299 cell at 2.6 uM concentration and level of cell viability determined in MTT assay; assay type: functional
[23] = tested on: NCI-H1299; test: Compound was tested for human telomerase reverse transcriptase-SEAP (hTERT-SEAP) activity in non-small cell lung cancer H1299 cell at 26 uM concentration; assay type: functional
[24] = tested on: NCI-H1299; test: Compound was tested for human telomerase reverse transcriptase-SEAP (hTERT-SEAP) activity in non-small cell lung cancer H1299 cell at 260.0 uM concentration; assay type: functional
[25] = tested on: NCI-H1299; test: hTERT-SEAP (Human telomerase reverse transcriptase-SEAP) activity in non-small cell lung cancer H1299 cell at 26 uM concentration and level of cell viability determined in MTT assay; assay type: functional
[26] = tested on: NCI-H1299; test: Compound was tested for human telomerase reverse transcriptase-SEAP (hTERT-SEAP) activity in non-small cell lung cancer H1299 cell at 2.6 uM concentration; assay type: functional
[27] = tested on: BJ; test: hTERT-SEAP (Human telomerase reverse transcriptase-SEAP) activity in immortalized hTERT-BJI at 260.0 uM concentration and level of cell viability determined in MTT assay; assay type: functional
[28] = tested on: BJ; test: hTERT-SEAP (Human telomerase reverse transcriptase-SEAP) activity in immortalized hTERT-BJI at 26 uM concentration and level of cell viability determined in MTT assay; assay type: functional

CCC(=O)Oc1cccc2c1C(=O)c1cccc(OC(=O)CC)c1C2=O was tested, and the Relative viability [1] was 94%, the “Relative SEAP activity” value [2] was 101% and the “Relative SEAP activity” value [3] was 97%. The “Relative SEAP activity” value [4] was 112%, the “Relative SEAP activity” value [5] was 152% and the Relative viability [6] was 116%. The “Relative SEAP activity” value [7] was 161%, the Relative viability [8] was 87% and the Relative viability [9] was 93%. The Relative viability [10] was 109%, the Relative viability [11] was 99% and the Relative viability [12] was 116%. The “Relative SEAP activity” value [13] was 103%, the “Relative SEAP activity” value [14] was 107% and the “Relative SEAP activity” value [15] was 138%. For the same compound, the Relative viability [16] was 110%, the Relative viability [17] was 114% and the “Relative SEAP activity” value [18] was 131%.
In the case of CCCC(=O)Oc1cccc2c1C(=O)c1cccc(OC(=O)CCC)c1C2=O, the “Relative SEAP activity” value [19] is reported as 134%, the “Relative SEAP activity” value [20] is reported as 119% and the Relative viability [21] is reported as 87%. The Relative viability [22] was 107%, the “Relative SEAP activity” value [23] was 118% and the “Relative SEAP activity” value [24] was 111%. The Relative viability [25] was 106%, the “Relative SEAP activity” value [26] was 114% and the Relative viability [27] was 85%. It also gave a Relative viability [28] of 106%.
